From patent US20220248744A1, “NICOTINE MATERIALS, METHODS OF MAKING SAME, AND USES THEREOF” (The Research Foundation for the State University of New York, priority 2019, published 2022)

Assay: not given
Conditions: UV λ=300 nm, air flow, 1H NMR

Row | Compound | degradation after 24 hours of UV irradiation
1 | O=C(O)c1cc(O)c(C(=O)O)cc1O [2,5-Dihydroxyterepthalic Acid] | no 2,5-dihydroxyterephthalic acid degradation
2 | CN1CCC[C@H]1c1cccnc1.O=C(O)c1cc(O)c(C(=O)O)cc1O [(S)-nicotinium 2,5-dihydroxyterephthalate] | no degradation
3 | CN1CCC[C@H]1c1cccnc1.O=C(O)c1c(O)cccc1O [(S)-nicotinium 2,6-dihydroxybenzoate] | no degradation
4 | CN1CCCC1c1cccnc1.O=C(O)CC(O)C(=O)O [(S)-nicotinium D-malate] | no degradation
5 | CN1CCCC1c1cccnc1.O.O=C(O)c1cc(=O)[nH]c(=O)[nH]1 [(S)-nicotinium orotate monohydrate] | no degradation
6 | CN1CCC[C@H]1c1cccnc1.O=C(O)C[C@H](O)C(=O)O [monoclinic P21 (S)-nicotinium L-malate, (S)-nicotinium L-malate] | no degradation
7 | CN1CCC[C@H]1c1cccnc1.O=C(O)c1ccccc1O [monoclinic P21 (S)-nicotinium salicylate, (S)-nicotinium salicylate] | no degradation
8 | O=C(O)c1cc(=O)[nH]c(=O)[nH]1 [orotic acid] | no orotic acid degradation
9 | CN1CCC[C@H]1c1cccnc1.O=C(O)C[C@H](O)C(=O)O [orthorhombic P212121 (S)-nicotinium L-malate] | no degradation

Assay: Aerosolization/Vaporization Analysis (iStick Pico with Sai atomizer, syringe as lung analog)
Conditions: heating in bucket coil; decarboxylation of the acid coformer

Row | Compound | degradation product formed during vaporization
10 | CN1CCC[C@H]1c1cccnc1.O=C(O)c1ccccc1O [monoclinic P21 (S)-nicotinium salicylate, (S)-nicotinium salicylate] | phenol was likely also formed

Assay: not given
Conditions: cited from earlier work

Row | Compound | pKa (Strongest Acidic)
11 | O=C(O)c1c(O)cc(O)cc1O [2,4,6-Trihydroxybenzoic Acid] | 1.83
12 | O=C(O)c1c(O)cccc1O [2,6-Dihydroxybenzoic Acid] | 1.51
13 | Nc1cccc(C(=O)O)c1O [3-Aminosalicylic Acid] | 2.90
14 | COc1ccc(C(=O)O)c(O)c1 [4-Methoxysalicylic Acid] | 3.09
15 | O=C(O)c1cc(Cc2ccc(O)c(C(=O)O)c2)ccc1O [5,5′-Methylenedisalicylic Acid] | 2.94
16 | COc1ccc(O)c(C(=O)O)c1 [5-Methoxysalicylic acid] | 2.52
17 | NC(C(=O)O)C(=O)O [Aminomalonic Acid] | 0.45
18 | COC(=O)[C@H](Cc1ccccc1)NC(=O)[C@@H](N)CC(=O)O [Aspartame] | 3.53
19 | C[N+](C)(C)CC(=O)O [Betaine] | 2.26
20 | O=C(/C=C/c1ccc(O)c(O)c1)O[C@@H](C(=O)O)[C@@H](O)C(=O)O [Caftaric Acid] | 2.96
21 | C[N+](C)(C)CC(O)CC(=O)[O-] (stereo not shown) [Carnitine] | 4.20
22 | O=C(O)C=Cc1ccccc1 [Cinnamic acid] | 4.01
23 | CC(O)(CC(=O)O)C(=O)O (stereo not shown) [Citramalic Acid] | 3.35
24 | OC[C@@H](O)[C@@H](O)CO [Erythritol] | 13.04
25 | O=C(O)/C=C/C(=O)O [Fumaric Acid] | 3.55
26 | O=C(O)[C@H](O)[C@@H](O)[C@@H](O)[C@H](O)CO [Galactonic Acid] | 3.39
27 | O=C[C@H](O)[C@@H](O)[C@@H](O)[C@H](O)C(=O)O [Galacturonic Acid] | 3.24
28 | O=C(O)/C=C\C(=O)O [Maleic Acid] | 3.05
29 | CC1CCC(C(C)C)C(O)C1 (stereo not shown) [Menthol] | 19.55
30 | COc1cccc(C(=O)O)c1 [Meta-Anisic Acid] | 3.84
31 | COc1ccccc1C(=O)O [Ortho-Anisic Acid] | 3.73
32 | COc1ccc(C(=O)O)cc1 [Para-Anisic Acid] | 4.37
33 | CC(=O)C(=O)O [Pyruvic Acid] | 2.93
34 | C=C1C[C@@]23CC[C@H]4[C@@](C)(CCC[C@@]4(C)C(=O)O)[C@@H]2CC[C@]1(O)C3 [Steviol] | 4.70
35 | O=C(O)CCC(=O)O [Succinic Acid] | 3.55
36 | OC[C@H]1O[C@H](O[C@]2(CCl)O[C@H](CCl)[C@@H](O)[C@@H]2O)[C@H](O)[C@@H](O)[C@H]1Cl [Sucralose] | 1.91
37 | OC[C@H]1O[C@@](CO)(O[C@H]2O[C@H](CO)[C@@H](O)[C@H](O)[C@H]2O)[C@@H](O)[C@@H]1O [Sucrose] | 11.84
39 | O=C(O)C(O)C(=O)O [Tartronic Acid] | 2.42
40 | OC[C@@H](O)[C@H](O)[C@@H](O)CO [Xylitol] | 12.76

Assay: Thermal analysis (differential scanning calorimetry / melting point): thermodynamic stability
Type: physicochemical
Conditions: based on DSC thermal analysis
Protocol: Differential Scanning calorimetry (DSC). A differential scanning calorimeter, model DSC Q200 (TA Instrument, USA) was used to measure the thermal transitions of the samples. About 10 mg of each synthesized compound was placed into an aluminum pan and sealed. Each sample, except (S)-nicotinium 2,6-Dihydroxybenzoate, was scanned from 0 to 150° C. at 20° C./min under nitrogen flow for at least 2 full cycles. (S)-nicotinium 2,6-Dihydroxybenzoate was scanned from 0 to 175° C. at 20° C./min under nitrogen flow for at least 2 full cycles.
Melting Point (MP): A Stuart SMP10 melting point apparatus was utilized to measure the melting point of each of the synthesized compounds. 4 replicates were run for each compound. The plateau temperature was set to 100° C. for each of the salts, except (S)-nicotinium D-malate, and then ramped at 2° C./minute. The plateau temperature was set to 80° C. for the (S)-nicotinium D-malate salt and ramped at 2° C./minute.
Thermal Analysis. […] This was confirmed via differential scanning calorimetry (DSC) by a very broad endotherm 116.4° C. […] This was confirmed by DSC where in the sharp endotherm at 123.5° C. indicated the melting of this (S)-nicotinium L-malate salt. […] This was confirmed via DSC, wherein the sharp endotherm at 95.2° C. The orthorhombic P212121 (S)-nicotinium DL-malate was initially observed as having a broad melting point of 76-78° C. The was confirmed via DSC wherein a melting point of 77.8° C., though with a very broad curve. […] Monoclinic P21 (S)-nicotinium 2,6-dihydroxybenzoate salt had the highest melting observed thus far. The sharp endotherm at 158.5° C. confirmed the observed melting point. Monoclinic P21 (S)-nicotinium 2,5-dihydroxyterephthalate was observed initially as having a tight melting point range of 196-198° C.

Row | Compound | thermodynamic / thermal stability
41 | CN1CCC[C@H]1c1cccnc1.O=C(O)c1cc(O)c(C(=O)O)cc1O [(S)-nicotinium 2,5-dihydroxyterephthalate] | highest observed thermal stability
42 | CN1CCC[C@H]1c1cccnc1.O=C(O)c1c(O)cccc1O [(S)-nicotinium 2,6-dihydroxybenzoate] | highest observed thermal stability
43 | CN1CCCC1c1cccnc1.O=C(O)CC(O)C(=O)O [(S)-nicotinium D-malate] | thermodynamically less stable than either of the (S)-nicotinium L-malate salts
44 | CN1CCC[C@H]1c1cccnc1.O=C(O)C[C@H](O)C(=O)O [monoclinic P21 (S)-nicotinium L-malate, (S)-nicotinium L-malate] | most thermodynamically favored and stable malate salt
45 | CN1CCC[C@H]1c1cccnc1.O=C(O)C[C@H](O)C(=O)O [orthorhombic P212121 (S)-nicotinium L-malate] | more thermodynamically stable than the orthorhombic P212121 (S)-nicotinium D-malate

Same assay, conditions: based on DSC thermal analysis; listed as Monoclinic P21 (S)-nicotinium L-malate

Row | Compound | thermodynamic / thermal stability
46 | CN1CCC[C@H]1c1cccnc1.O=C(O)C[C@H](O)C(=O)O [monoclinic P21 (S)-nicotinium L-malate, (S)-nicotinium L-malate] | thermodynamically more stable than the orthorhombic P212121 (S)-nicotinium L-malate
